Experimental data taken from ChEMBL document CHEMBL1135560, “Parallel synthesis and anti-malarial activity of a sulfonamide library” (Bioorg Med Chem Lett, 2002).

tested on: Plasmodium falciparum; experiment: Growth inhibition of Plasmodium falciparum at 10 nM; format: functional

**Q.** For CC(=O)c1cccc(S(=O)(=O)NCCCN2CCN(CCCNc3ccnc4cc(Cl)ccc34)CC2)c1, which inhibition at 0.01 µM is on record?
**A.** 22%

**Q.** With O=S(=O)(NCCCN1CCN(CCCNc2ccnc3cc(Cl)ccc23)CC1)c1ccccc1F as the compound, how does the inhibition at 0.01 µM read?
**A.** 11%

**Q.** With CCS(=O)(=O)NCCCN1CCN(CCCNc2ccnc3cc(Cl)ccc23)CC1 as the compound, how does the inhibition at 0.01 µM read?
**A.** 1%

**Q.** How did the inhibition at 0.01 µM turn out when COc1ccc(Br)cc1S(=O)(=O)NCCCN1CCN(CCCNc2ccnc3cc(Cl)ccc23)CC1 was run?
**A.** 64%

**Q.** Which inhibition at 0.01 µM does the source give for CC(C)S(=O)(=O)NCCCN1CCN(CCCNc2ccnc3cc(Cl)ccc23)CC1 here?
**A.** 25%

**Q.** How did the inhibition at 0.01 µM turn out when O=[N+]([O-])c1cccc(S(=O)(=O)NCCCN2CCN(CCCNc3ccnc4cc(Cl)ccc34)CC2)c1 was run?
**A.** 48%

**Q.** Which inhibition at 0.01 µM does the source give for Cc1ccc(S(=O)(=O)NCCCN2CCN(CCCNc3ccnc4cc(Cl)ccc34)CC2)cc1 here?
**A.** 54%

**Q.** How did the inhibition at 0.01 µM turn out when O=S(=O)(NCCCN1CCN(CCCNc2ccnc3cc(Cl)ccc23)CC1)c1cc(C(F)(F)F)ccc1Cl was run?
**A.** 60%

**Q.** With O=S(=O)(NCCCN1CCN(CCCNc2ccnc3cc(Cl)ccc23)CC1)c1ccc(Cl)cc1 as the compound, how does the inhibition at 0.01 µM read?
**A.** 26%

**Q.** Cc1ccc([N+](=O)[O-])cc1S(=O)(=O)NCCCN1CCN(CCCNc2ccnc3cc(Cl)ccc23)CC1 was tested. Which inhibition at 0.01 µM did it give?
**A.** 56%

**Q.** How did the inhibition at 0.01 µM turn out when O=S(=O)(Cc1ccccc1)NCCCN1CCN(CCCNc2ccnc3cc(Cl)ccc23)CC1 was run?
**A.** 4%

**Q.** Which inhibition at 0.01 µM does the source give for O=S(=O)(NCCCN1CCN(CCCNc2ccnc3cc(Cl)ccc23)CC1)c1ccc(F)cc1 here?
**A.** 20%

**Q.** With O=[N+]([O-])c1ccccc1S(=O)(=O)NCCCN1CCN(CCCNc2ccnc3cc(Cl)ccc23)CC1 as the compound, how does the inhibition at 0.01 µM read?
**A.** 0%

**Q.** Which inhibition at 0.01 µM does the source give for O=S(=O)(/C=C/c1ccccc1)NCCCN1CCN(CCCNc2ccnc3cc(Cl)ccc23)CC1 here?
**A.** 0%

tested on: Plasmodium falciparum; experiment: Antimalarial activity against chloroquine-resistant Plasmodium falciparum FcB1; format: functional, organism-based

**Q.** For Clc1ccc2c(NCCCN3CCN(CCCNc4ccnc5cc(Cl)ccc45)CC3)ccnc2c1, which IC50 is on record?
**A.** 0.112 µM

tested on: MRC5; experiment: Cytotoxicity tests were performed on a human diploid embryonic lung cell line (MRC5) using the colorimetric MTT assay; format: functional, cell-based

**Q.** How did the IC50 turn out when CCN(CC)CCCC(C)Nc1ccnc2cc(Cl)ccc12 (stereo unspecified) [CHLOROQUINE] was run?
**A.** 50 µM
